Measurements as given in patent US20090081758A1, “Chimeric Cytochrome P450 Proteins and Methods of Use” (THE REGENTS OF THE UNIVERSITY OF MICHIGAN, priority 2007, published 2009).

How the values were obtained:
wt-PikC = wt-PikC (Streptomyces venezuelae, UniProt O87605); test: Spectral substrate binding assay, wt-PikC; conditions: Type I difference spectra, 1 μM P450, room temperature; read-out: Kd (dissociation constant)
Experimental: (§1) Spectral substrate binding assays were performed using a UV-visible spectrophotometer 300 Bio (Cary) at room temperature by titrating 30 mM substrate DMSO solution (blank DMSO for reference group) into 1 ml of 1 μM P450 sample in 1 μl aliquots, leading to substrate concentration ranging from 30 to 360 μM. The series of Type I difference spectra were used to deduce ΔA (Apeak(389)−Atrough(424)). Then, the data were fit to Michaelis-Menten equation to obtain the dissociation constant Kd. As mentioned above, one benefit of the fusion protein arrangement is the facility of the covalent linkage to stabilize productive interactions between the P450 and redox partner, thus enhancing electron transfer efficiency. […] To test whether this also applies to PikC-RhFRED, we first determined the substrate binding affinity of YC-17 and narbomycin toward both PikC and PikC-RhFRED.

PikC-RhFRED [1] = test: Spectral substrate binding assay, PikC-RhFRED; design: species or system Streptomyces venezuelae; conditions: Type I difference spectra, 1 μM P450, room temperature; read-out: Kd (dissociation constant)
Experimental: as §1

PikC-RhFRED [2] = test: Steady-state kinetics, substrate consumption by HPLC, PikC-RhFRED; format: biochemical, Streptomyces venezuelae; conditions: kcat/Km of PikC-RhFRED relative to wt-PikC with Fdr and Fdx
Experimental: Subsequently, the kinetic parameters of PikC-RhFRED were compared with those of the PikC-Fdr-Fdx three component system. […] Moreover, the solubility limitation (less than 500 μM) of macrolides in aqueous solution prevented us from deducing the K, value. Therefore, the apparent specificity constants (kcat/Km) were determined by fitting the low-concentration data to the linear region of a Michaelis-Menten curve. […] In contrast, the specificity constants of wt-PikC partnered by Fdr and Fdx were 0.24 μM^−1·min^−1 for YC-17 and 0.31 μM^−1·min^−1 for narbomycin. It is evident that the fusion enhanced the catalytic activity approximately 4 fold for both YC-17 and narbomycin. […] The presumed de-coupling between electron transfer and hydroxylation may account for this difference.
The standard reaction contains 100 nM of PikC-RhFRED (or 150 nM of wt-PikC with 3.5 μM spinach ferredoxin and 0.1 U/ml spinach ferredoxin-NADP^+ reductase), 20˜250 μM substrate in 200 μl of desalting buffer (50 mM NaH2PO4, pH 7.3, 1 mM EDTA, 0.2 mM DTE, 10% glycerol). After pre-incubation at 30° C. for 5 min, the reaction was initiated by adding 1 μl of 50 mM NADPH and 50 μl aliquots were taken at 0 s, 20 s, and 40 s (or Os, 30 s, and 60 s when substrate concentration greater than 100 μM) to thoroughly mix with 2×100 μl of chloroform. […]

Chain of wt-PikC (O87605 whole entry, the tested form may be a part): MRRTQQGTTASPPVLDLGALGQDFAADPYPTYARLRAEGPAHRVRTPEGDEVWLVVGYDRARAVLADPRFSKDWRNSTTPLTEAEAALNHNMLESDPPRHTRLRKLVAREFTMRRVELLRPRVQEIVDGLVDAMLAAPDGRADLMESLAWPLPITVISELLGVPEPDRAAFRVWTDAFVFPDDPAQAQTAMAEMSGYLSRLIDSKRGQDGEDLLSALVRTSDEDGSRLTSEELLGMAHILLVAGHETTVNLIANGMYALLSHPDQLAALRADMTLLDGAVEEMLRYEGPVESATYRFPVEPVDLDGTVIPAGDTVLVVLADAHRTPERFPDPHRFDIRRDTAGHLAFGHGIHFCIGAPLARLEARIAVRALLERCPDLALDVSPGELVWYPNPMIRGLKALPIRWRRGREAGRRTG

SMILES | Kd (wt-PikC) | Kd (PikC-RhFRED [1]) | enhancement of catalytic activity by fusion (PikC-RhFRED vs wt-PikC) (PikC-RhFRED [2])
CC[C@H]1OC(=O)[C@H](C)C(=O)[C@H](C)[C@@H](O[C@@H]2O[C@H](C)C[C@H](N(C)C)[C@H]2O)[C@@H](C)C[C@@H](C)C(=O)/C=C/[C@H]1C [narbomycin] | 288 ± 7.1 µM | 215 ± 4.2 µM | approximately 4 fold
CC[C@H]1OC(=O)[C@H](C)[C@@H](O[C@@H]2O[C@H](C)C[C@H](N(C)C)[C@H]2O)[C@@H](C)C[C@@H](C)C(=O)/C=C/[C@H]1C [YC-17] | 113 ± 1.9 µM | 92.6 ± 0.5 µM | approximately 4 fold
